The target of data set [1] is T1, integrin αvβ3 (Homo sapiens, UniProt P05106+P06756).
T1 construct: evaluated using U87MG cells (integrin αvβ3-positive); endogenous in cells; host or cells: U87MG human glioblastoma cells (ATCC)
Put plainly: competitive cell binding assay using ^125I-echistatin on U87MG cells. The settings on record: for IC50: n=3, read-out: IC50 (inhibition of ^125I-echistatin binding to U87MG cells). The procedure:
Experiments were performed on U87MG human glioblastoma cells with triplicate samples as previously reported.
In vitro integrin αvβ3-binding affinities and specificities of RGD4, PRGD4 and FPRGD4 were assessed via displacement cell binding assays using ^125I-echistatin as the integrin αvβ3-specific radioligand. Experiments were performed on U87MG human glioblastoma cells by the method previously described (J Nucl Med. 2005;46:1707-1718 J Nucl Med. 2006;47:1172-1180, which is incorporated herein by reference for the corresponding discussion). […] Experiments were performed with triplicate samples.
Experiments were performed with triplicate samples.
In vitro integrin-binding affinity and specificity of RGD multimers and DOTA-RGD multimers were assessed via competitive cell binding assays using ^125I-echistatin as the integrin αvβ3-specific radioligand (J Nucl Med. 2005;46:1707-1718, which is incorporated herein by reference for the corresponding discussion). […] Experiments were performed with triplicate samples.

Data set [2] has as its system MDA-MB-435 tumor-bearing mice. Put plainly: biodistribution of ^3H-PTX and ^3H-RGD2−PTX in MDA-MB-435 tumor-bearing mice. Type of data set: in vivo, mouse. The procedure:
All animal experiments were performed in compliance with the guidelines for the care and use of research animals established by the Stanford University's Animal Studies Committee. Female athymic nude mice (nu/nu) were obtained from Harlan (Indianapolis, Ind.) at 6-8 weeks of age and were kept under sterile conditions. The MDA-MB-435 cells were harvested and suspended in sterile PBS at a concentration of 5×10^7 cells/mL. Viable cells (5×10^6) in PBS (100 μL) were injected orthotopically in the right mammary fat pad. […] Tumor growth was followed by caliper measurements of perpendicular measures of the tumor. The tumor volume was estimated by the formula: tumor volume=a×(b^2)/2, where a and b are the tumor length and width respectively in mm.
The animals were euthanized at 4, 24 and 48 h post injection and major organs and tissues were collected correspondingly. Approximately 100 mg of the tissue was added to glass scintillation vials containing 1 mL of tissue solubilizer SoluEne®-350 (Perkin-Elmer, Waltham, Mass.). These samples were digested at 55° C. for overnight followed by bleaching to obtain the decolorized samples. Chemiluminescence was reduced by the addition of glacial acetic acid. Hionic-Fluor liquid scintillation cocktail (Perkin-Elmer) was added to all samples, which were then counted with a Tri-Carb 2800TR liquid scintillation Analyzer (Perkin-Elmer).

Data set [3] in a line: in vivo. The settings on record: mouse, iv, 3.7 MBq, total radioactivity, U87MG tumor uptake. The procedure: PET scans and image analysis were performed using a microPET R4 rodent model scanner (Siemens Medical Solutions) as previously reported (J Nucl Med 2006;47:113-121 and J Nucl Med 2005;46:1707-1718, each of which is incorporated herein by reference for the corresponding discussion). Each mouse was tail-vein injected with about 3.7 MBq (100 μCi) of ^18F-FPRGD2 under isoflurane anesthesia. The 30-min dynamic scan (1×30 s, 4×1 min, 1×1.5 min, 4×2 min, 1×2.5 min, 4×3 min, total of 15 frames) was started 1 min after injection. Five min static PET images were also acquired at 1 h and 2 h post-injection (p.i.). The images were reconstructed by a 2-dimensional ordered-subsets expectation maximum (OSEM) algorithm and no correction was applied for attenuation or scatter.
PET scans and image analysis were performed using a microPET R4 rodent model scanner (Siemens Medical Solutions) as previously reported. For U87MG tumor model, mice (n=3) were tail-vein injected with about 3.7 MBq (100 μCi) of ^18F-FPRGD4 under isoflurane anesthesia and then subjected to a 30-min dynamic scan (1×30 s, 4×1 min, 1×1.5 min, 4×2 min, 1×2.5 min, 4×3 min, total of 15 frames) starting from 1 min p.i. Five min static PET images were also acquired at 1, 2, and 3 h p.i. The images were reconstructed by 2-dimensional ordered-subsets expectation maximum (OSEM) algorithm. No attenuation or scatter correction was applied. […] The 5-min static PET scans was then acquired at 30 min and 1 h p.i. Multiple time point static scans were also obtained for orthotopic MDA-MB-435, c-neu oncomouse, and subcutaneous DU145 tumor models after tail-vein injected with 3.7 MBq of ^18F-FPRGD4.
For each microPET scan, regions of interest (ROIs) were drawn over the tumor, normal tissue, and major organs by using vendor software (ASI Pro 5.2.4.0) on decay-corrected whole-body coronal images. The maximum radioactivity concentration (accumulation) within a tumor or an organ was obtained from mean pixel values within the multiple ROI volume, which were converted to counts/mL/min by using a conversion factor. Assuming a tissue density of 1 g/mL, the ROIs were converted to counts/g/min and then divided by the administered activity to obtain an imaging ROI-derived % ID/g. […]
PET scans and image analysis were performed using a microPET R4 rodent model scanner (Siemens Medical Solutions) as previously reported (J Nucl Med. 2005;46:1707-1718 and J Nucl Med. 2006;47:113-121, each of which is incorporated herein by reference for the corresponding discussion). About 9.3 MBq of ^64Cu-DOTA-RGD multimer was intravenously injected into each mouse under isoflurane anesthesia. Five minute static scans were acquired at 30 min, 1 h, 2 h, 6 h, and 20 h p.i. The images were reconstructed by a 2-dimensional ordered-subsets expectation maximum (OSEM) algorithm and no correction was applied for attenuation and scatter. For each microPET scan, regions of interest (ROIs) were drawn over the tumor, normal tissue, and major organs on decay-corrected whole-body coronal images. The radioactivity concentration (accumulation) within a tumor was obtained from the maximum value within the multiple ROIs and then converted to % ID/g.
PET scans and image analysis were performed using a microPET R4 rodent model scanner (Siemens Medical Solutions) as previously reported (J Nucl Med. 2006;47:113-21 and J Nucl Med. 2005;46:1707-18, which is incorporated herein by reference for the corresponding discussion). […] The 60-min dynamic scan (5×1 min, 10×3 min, 5×5 min, total of 20 frames) was started 1 min after injection. A 2 h time point static scan was also acquired after the 60 min dynamic scan. Five min static PET images were also acquired separately at 30 min, 1 h and 2 h time points post-injection (p.i.) for another set of tumor-bearing mice (n=3/tracer). The images were reconstructed by a 2-dimensional ordered-subsets expectation maximum (OSEM) algorithm and no correction was necessary for attenuation or scatter correction. […]

Each structure is given as a SMILES string. Several values for one entry are separate records, joined by “and”; a condition that tells them apart may be missing. Equal entries are not always repeated. Where two headings read alike, the source gives them in different places.

As usually defined, the IC50 is the point on the concentration scale where inhibition reaches its midpoint. Broadly, the tissue uptake is the percentage of the injected dose found per gram of tissue.

As for `N=C(N)NCCC[C@@H]1NC(=O)[C@H](CCCCNC(=O)CC[C@H](NC(=O)CC[C@H](NC(=S)Nc2ccc(C[C@H]3CN(CC(=O)O)CCN(CC(=O)O)CCN3CC(=O)O)cc2)C(=O)N[C@@H](CCC(=O)NCCCC[C@@H]2NC(=O)[C@@H](Cc3ccc(O)cc3)NC(=O)[C@H](CC(=O)O)NC(=O)CNC(=O)[C@H](CCCNC(=N)N)NC2=O)C(=O)NCCCC[C@@H]2NC(=O)[C@@H](Cc3ccc(O)cc3)NC(=O)[C@H](CC(=O)O)NC(=O)CNC(=O)[C@H](CCCNC(=N)N)NC2=O)C(=O)NCCCC[C@@H]2NC(=O)[C@@H](Cc3ccc(O)cc3)NC(=O)[C@H](CC(=O)O)NC(=O)CNC(=O)[C@H](CCCNC(=N)N)NC2=O)NC(=O)[C@@H](Cc2ccc(O)cc2)NC(=O)[C@H](CC(=O)O)NC(=O)CNC1=O` [NOTA-RGD4, NOTA-E{E[c(RGDyK)]2}2], in data set [1] (Example 5), the “fold higher integrin αvβ3 affinity than NOTA-RGD1” value was determined as 13 fold, the “fold increase of integrin avidity compared to NOTA-RGD2” value is 3 fold and the IC50 was found to be 16.1 ± 3.1 nM.
As to `CC(=O)O[C@H]1C(=O)[C@@]2(C)[C@H]([C@H](OC(=O)c3ccccc3)[C@]3(O)C[C@H](OC(=O)[C@H](O)[C@@H](NC(=O)c4ccccc4)c4ccccc4)C(C)=C1C3(C)C)[C@]1(OC(C)=O)CO[C@@H]1C[C@@H]2O` [^3H-PTX, reference compound], in data set [2] (4 h), the “tissue concentration, Blood” value was determined as 67.1 ± 9.8 ng/g; the “tissue concentration, Intestine” value is listed as 274.1 ± 110.1 ng/g; the “tissue concentration, Kidney” value worked out at 339.6 ± 67.6 ng/g; the “tissue concentration, Liver” value was 2389.3 ± 408.8 ng/g. Moreover, in data set [2] (4 h), the “tissue concentration, Lung” value was determined as 329.2 ± 18.2 ng/g; the “tissue concentration, MDA-MB-435 tumor” value came to 239.0 ± 56.2 ng/g; the “tissue concentration, Muscle” value was 257.3 ± 32.2 ng/g; the “tissue concentration, Skin” value is on record as 135.1 ± 23.5 ng/g. For the same molecule, in data set [2] (4 h), the “tissue concentration, Spleen” value worked out at 365.5 ± 118.5 ng/g and the “tissue concentration, Stomach” value is 180.7 ± 15.7 ng/g. Besides, in data set [2] (24 h), the “tissue concentration, Blood” value came to 42.7 ± 14.7 ng/g; the “tissue concentration, Intestine” value is 14.4 ± 2.5 ng/g; the “tissue concentration, Kidney” value was 38.0 ± 13.3 ng/g; the “tissue concentration, Liver” value was found to be 123.4 ± 12.2 ng/g. In data set [2] (24 h), the “tissue concentration, Lung” value turned out to be 35.2 ± 5.4 ng/g; the “tissue concentration, MDA-MB-435 tumor” value turned out to be 85.6 ± 15.2 ng/g; the “tissue concentration, Muscle” value was 41.1 ± 17.2 ng/g; the “tissue concentration, Skin” value came to 24.6 ± 3.2 ng/g. Also, in data set [2] (24 h), the “tissue concentration, Spleen” value amounted to 51.6 ± 7.6 ng/g and the “tissue concentration, Stomach” value is listed as 24.4 ± 4.7 ng/g. In data set [2] (24 h compared with 4 h), the “decrease of concentration in the tumor” value is recorded as “around 3 fold”, the “drop of concentration in kidneys” value is 9 fold and the “drop of concentration in the liver” value is given as 20 fold. In data set [2] (48 h), the “tissue concentration, Blood” value stood at 35.0 ± 1.5 ng/g; the “tissue concentration, Intestine” value is 12.8 ± 7.0 ng/g; the “tissue concentration, Kidney” value is given as 35.7 ± 2.0 ng/g; the “tissue concentration, Liver” value is listed as 132.6 ± 31.9 ng/g. Further, in data set [2] (48 h), the “tissue concentration, Lung” value worked out at 47.9 ± 8.8 ng/g; the “tissue concentration, MDA-MB-435 tumor” value is 45.8 ± 1.69 ng/g and 45.8 ± 1.7 ng/g; the “tissue concentration, Muscle” value was determined as 35.4 ± 10.7 ng/g; the “tissue concentration, Skin” value turned out to be 25.4 ± 9.3 ng/g. In data set [2] (48 h), the “tissue concentration, Spleen” value is given as 36.4 ± 8.4 ng/g and the “tissue concentration, Stomach” value came out at 17.2 ± 4.0 ng/g. The “decrease of concentration in the tumor” value in data set [2] (48 h compared with 4 h) was 5.2 fold.
With `N=C(N)NCCC[C@@H]1NC(=O)[C@H](CCCCNC(=O)CC[C@H](NC(=O)CC[C@H](NC(=S)Nc2ccc(C[C@H]3CN(CC(=O)O)CCN(CC(=O)O)CCN3CC(=O)O)cc2)C(=O)N[C@@H](CCC(=O)NCCCC[C@@H]2NC(=O)[C@@H](Cc3ccc(O)cc3)NC(=O)[C@H](CC(=O)O)NC(=O)CNC(=O)[C@H](CCCNC(=N)N)NC2=O)C(=O)NCCCC[C@@H]2NC(=O)[C@@H](Cc3ccc(O)cc3)NC(=O)[C@H](CC(=O)O)NC(=O)CNC(=O)[C@H](CCCNC(=N)N)NC2=O)C(=O)NCCCC[C@@H]2NC(=O)[C@@H](Cc3ccc(O)cc3)NC(=O)[C@H](CC(=O)O)NC(=O)CNC(=O)[C@H](CCCNC(=N)N)NC2=O)NC(=O)[C@@H](Cc2ccc(O)cc2)NC(=O)[C@H](CC(=O)O)NC(=O)CNC1=O` [^68Ga-NOTA-RGD4, metal not drawn], in data set [3] (athymic nude), the tissue uptake at 0.5 h was 3.4 ± 0.1 %ID/g, the tissue uptake at 1 h came out at 2.8 ± 0.1 %ID/g and the tissue uptake at 2 h stood at 2 ± 0.2 %ID/g. In addition, in data set [3] (nude), the tissue uptake at 5 min was found to be 4.9 %ID/g, the tissue uptake at 0.25 h is 4.08 %ID/g, the tissue uptake at 0.5 h amounted to 3.48 %ID/g and the tissue uptake at 1 h was determined as 2.86 %ID/g. Further, the tissue uptake at 2 h in data set [3] (nude) amounted to 2.13 %ID/g.
In the case of `N=C(N)NCCC[C@@H]1NC(=O)[C@H](CCCCNC(=O)CC[C@H](NC(=O)CC[C@H](NC(=O)CN2CCN(CC(=O)O)CCN(CC(=O)O)CCN(CC(=O)O)CC2)C(=O)N[C@@H](CCC(=O)NCCCC[C@@H]2NC(=O)[C@@H](Cc3ccc(O)cc3)NC(=O)[C@H](CC(=O)O)NC(=O)CNC(=O)[C@H](CCCNC(=N)N)NC2=O)C(=O)NCCCC[C@@H]2NC(=O)[C@@H](Cc3ccc(O)cc3)NC(=O)[C@H](CC(=O)O)NC(=O)CNC(=O)[C@H](CCCNC(=N)N)NC2=O)C(=O)NCCCC[C@@H]2NC(=O)[C@@H](Cc3ccc(O)cc3)NC(=O)[C@H](CC(=O)O)NC(=O)CNC(=O)[C@H](CCCNC(=N)N)NC2=O)NC(=O)[C@@H](Cc2ccc(O)cc2)NC(=O)[C@H](CC(=O)O)NC(=O)CNC1=O` [DOTA-RGD tetramer], the IC50 in data set [1] (Example 4) is 28 nM.

Source of the values: patent US20080267882A1, “Imaging compounds, methods of making imaging compounds, methods of imaging, therapeutic compounds, methods of making therapeutic compounds, and methods of therapy” (Stanford University, priority 2007, published 2008).
